We go through four molecules from US20220390438A1, “Identification and Characterisation of Herbicides and Plant Growth Regulators” (priority 2019, published 2022).

Experiment [1] has as its system wild type Marchantia plants. Kind of experiment: Lethal concentration determination: Marchantia spores plated on Johnson's medium agar supplemented with herbicide, 14-day old sporelings. The experiment is classed as in vivo, Marchantia polymorpha. The procedure: A lethal concentration of the herbicide hit was determined in the condition of the mutagenesis concentration. 20000 Marchantia spores were plated in 90 mm Petri dishes containing 25 mL of Johnson's medium containing 1.4% agar and supplemented with a range of herbicide hit concentrations ranging from 1 to 50000 nM. The lethal concentration was defined as the minimum concentration of herbicide hit sufficient to kill 100% of the wild type Marchantia plants (FIG. 11).
If no lethal concentration was observed, the highest concentration would be used in place of the lethal concentration provided that it caused the plants to show a phenotype distinct from the phenotype of untreated plants. For example, this alternative phenotype may be a strong reduction in growth (FIG. 12) or a marked change in the shape of the plants, or a change in plant pigmentation.
Marchantia polymorpha spores were irradiated with ultraviolet B irradiation and seven independent mutant lines resistant to the herbicide chlorsulfuron were identified. Chlorsulfuron resistance was determined by a Marchantia polymorpha plant that was alive two weeks following exposure to a lethal dose of Chlorsulfuron (0.1 ppm dose, i.e. a dose sufficient to kill 100% of wild-type plants).

Experiment [2] has as its system Marchantia polymorpha. Conditions: stated as known, like liverworts in general; cited from earlier work.
The mark [3] stands for this setting: 1000 μM herbicide, 14-day old sporelings in Petri dishes, three replicates.

Turning to `COc1nc(C)nc(NC(=O)NS(=O)(=O)c2ccccc2Cl)n1` [Chlorsulfuron], in experiment [1] (setting [3]), the growth of sporelings result is “marked reduction in growth” and the survival of sporelings result is recorded as “have not all died”. Besides, in experiment [1] (wild-type Marchantia polymorpha, two weeks following exposure), the “lethal dose (dose sufficient to kill 100% of wild-type plants)” value is reported as 0.1 ppm.

As for `CNc1cnn(-c2cccc(C(F)(F)F)c2)c(=O)c1Cl` [Norflurazon], the survival of sporelings result in experiment [1] (setting [3]) is reported as “have all died”.

As for `CP(=O)(O)CCC(N)C(=O)O` (stereo not drawn) [glufosinate], in experiment [2], the “sensitivity of Marchantia polymorpha to the herbicide” value is reported as “insensitive”.

`O=C(O)CNCP(=O)(O)O` [glyphosate]: the “sensitivity of Marchantia polymorpha to the herbicide” value in experiment [2] is reported as “insensitive”.
